Here are results for 2 compounds from patent publication US20240207283A1, “WATER SOLUBLE COMPLEX COMPOSITIONS AND METHODS THEREOF” (VETERINARY PHARMACY CORPORATION, priority 2021, published 2024).

The conditions of data set [1]: generally known; cited from earlier work.
For data set [2] the following is noted: hydrotrope niacinamide.

`Cc1cnc(NC(=O)C2=C(O)c3ccccc3S(=O)(=O)N2C)s1` [meloxicam]: in data set [1], the solubility in methanol result is reported as “slightly soluble in methanol” and the solubility in water result is reported as “insoluble in water”.
Take `CN1C(C(=O)Nc2ccccn2)=C(O)c2ccccc2S1(=O)=O` [piroxicam]: in data set [2], the “pH above which the clear solution begins to form” value was “above 9.0”.
